Data as given in US20240058344A1, “METHODS OF TREATING NEURODEGENERATIVE DISORDERS AND STAT3-LINKED CANCERS USING SUPPRESSORS OF ELECTRON LEAK” (Cornell University, priority 2020, published 2024).

Columns and labels:
primary astrocytes = experiment: Intracellular ATP levels in primary astrocytes; type: cell-based
Excerpt: Antimycin A and myxothiazol were used as positive controls to inhibit mitochondrial respiration and ATP production. n=3 wells per condition. ***p<0.001 vs. vehicle, mixed-effects model with Dunnett's multiple comparisons test.

astrocytes = experiment: Oxygen consumption rates (mitochondrial respiration) in astrocytes; type: cell-based
Excerpt: Oxygen consumption rates (OCR) and maximal consumption rates are shown for indicated S3QEL2 concentrations and time points. Antimycin and rotenone were used as positive controls to inhibit mitochondrial respiration. ***p<0.001 vs. vehicle, two-way repeated measures ANOVA with Dunnett's multiple comparisons test.

Row | Molecule | Intracellular ATP levels (primary astrocytes) | Mitochondrial respiration (oxygen consumption rates, OCR) (astrocytes)
1 | CO/C(=C/C(N)=O)[C@H](C)[C@H](/C=C/c1csc(-c2csc([C@@H](C)/C=C/C=C/C(C)C)n2)n1)OC [myxothiazol] | greatly reduce | 
2 | C=C(C)[C@H]1Cc2c(ccc3c2O[C@@H]2COc4cc(OC)c(OC)cc4[C@@H]2C3=O)O1 [rotenone] |  | greatly reduce
3 | antimycin A | greatly reduce | greatly reduce
